Experiments:
Conditions in all cases: Compound concentration 100.0 nM
[1] = molecular target: Cytoplasmic tyrosine-protein kinase BMX (Homo sapiens) (UniProt P51813)
[2] = molecular target: Mitogen-activated protein kinase kinase kinase 7 (Homo sapiens) (UniProt O43318)
[3] = molecular target: MAP kinase-interacting serine/threonine-protein kinase 1 (Homo sapiens) (UniProt Q9BUB5)
[4] = molecular target: Phosphatidylinositol 4-kinase beta (Homo sapiens) (UniProt Q9UBF8)
[5] = molecular target: Activin receptor type-2A (Homo sapiens) (UniProt P27037)
[6] = molecular target: Mitogen-activated protein kinase kinase kinase 10 (Homo sapiens) (UniProt Q02779)
[7] = molecular target: Protein-tyrosine kinase 2-beta (Homo sapiens) (UniProt Q14289)
[8] = molecular target: Mitogen-activated protein kinase 7 (Homo sapiens) (UniProt Q13164)
[9] = molecular target: Activin receptor type-1 (Homo sapiens) (UniProt Q04771)
[10] = molecular target: Platelet-derived growth factor receptor beta (Homo sapiens) (UniProt P09619)
[11] = molecular target: Serine/threonine-protein kinase mTOR (Homo sapiens) (UniProt P42345)
[12] = molecular target: Serine/threonine-protein kinase 17A (Homo sapiens) (UniProt Q9UEE5)
[13] = molecular target: Cyclin-dependent kinase 13 (Homo sapiens) (UniProt Q14004)
[14] = molecular target: Ephrin type-B receptor 4 (Homo sapiens) (UniProt P54760)
[15] = molecular target: Casein kinase I isoform epsilon (Homo sapiens) (UniProt P49674)
[16] = molecular target: Insulin receptor-related protein (Homo sapiens) (UniProt P14616)
[17] = molecular target: Ephrin type-A receptor 2 (Homo sapiens) (UniProt P29317)
[18] = molecular target: Mitogen-activated protein kinase 1 (Homo sapiens) (UniProt P28482)
[19] = molecular target: AP2-associated protein kinase 1 (Homo sapiens) (UniProt Q2M2I8)
[20] = molecular target: Tyrosine-protein kinase JAK2 (Homo sapiens) (UniProt O60674)
[21] = molecular target: Serine/threonine-protein kinase 32A (Homo sapiens) (UniProt Q8WU08)
[22] = test system: eIF-2-alpha kinase GCN2 (Homo sapiens), Q9P2K8 [S808G]
[23] = test system: Receptor-type tyrosine-protein kinase FLT3 (Homo sapiens), P36888 [D835V]
[24] = molecular target: Vascular endothelial growth factor receptor 1 (Homo sapiens) (UniProt P17948)
[25] = molecular target: LIM domain kinase 2 (Homo sapiens) (UniProt P53671)
[26] = molecular target: Serine/threonine-protein kinase PAK 1 (Homo sapiens) (UniProt Q13153)
[27] = molecular target: Ephrin type-A receptor 3 (Homo sapiens) (UniProt P29320)
[28] = molecular target: Dual specificity protein kinase CLK2 (Homo sapiens) (UniProt P49760)
[29] = molecular target: Microtubule-associated serine/threonine-protein kinase 1 (Homo sapiens) (UniProt Q9Y2H9)
[30] = molecular target: Myosin light chain kinase (Homo sapiens) (UniProt Q32MK0)
[31] = molecular target: Serine/threonine-protein kinase RIO2 (Homo sapiens) (UniProt Q9BVS4)
[32] = molecular target: Insulin receptor (Homo sapiens) (UniProt P06213)
[33] = molecular target: Serine/threonine-protein kinase SIK1 (Homo sapiens) (UniProt P57059)
[34] = molecular target: Myosin light chain kinase family member 4 (Homo sapiens) (UniProt Q86YV6)
[35] = molecular target: Serine/threonine-protein kinase NLK (Homo sapiens) (UniProt Q9UBE8)
[36] = molecular target: Serine/threonine-protein kinase ULK2 (Homo sapiens) (UniProt Q8IYT8)
[37] = test system: Epidermal growth factor receptor (Homo sapiens), P00533 [UNDEFINED MUTATION]
[38] = molecular target: Atypical kinase COQ8A, mitochondrial (Homo sapiens) (UniProt Q8NI60)
[39] = molecular target: Myosin-IIIa (Homo sapiens) (UniProt Q8NEV4)
[40] = molecular target: Receptor-interacting serine/threonine-protein kinase 4 (Homo sapiens) (UniProt P57078)
[41] = test system: Proto-oncogene tyrosine-protein kinase receptor Ret (Homo sapiens), P07949 [V804L]
[42] = molecular target: Tyrosine-protein kinase Fes/Fps (Homo sapiens) (UniProt P07332)
[43] = molecular target: Mitogen-activated protein kinase kinase kinase 6 (Homo sapiens) (UniProt O95382)
[44] = molecular target: Mitogen-activated protein kinase kinase kinase 2 (Homo sapiens) (UniProt Q9Y2U5)
[45] = molecular target: 5'-AMP-activated protein kinase catalytic subunit alpha-1 (Homo sapiens) (UniProt Q13131)
[46] = molecular target: Mitogen-activated protein kinase kinase kinase kinase 4 (Homo sapiens) (UniProt O95819)

Measured: residual activity

Tyrosine-protein kinase Fes/Fps (Homo sapiens), sequence (P07332 whole entry): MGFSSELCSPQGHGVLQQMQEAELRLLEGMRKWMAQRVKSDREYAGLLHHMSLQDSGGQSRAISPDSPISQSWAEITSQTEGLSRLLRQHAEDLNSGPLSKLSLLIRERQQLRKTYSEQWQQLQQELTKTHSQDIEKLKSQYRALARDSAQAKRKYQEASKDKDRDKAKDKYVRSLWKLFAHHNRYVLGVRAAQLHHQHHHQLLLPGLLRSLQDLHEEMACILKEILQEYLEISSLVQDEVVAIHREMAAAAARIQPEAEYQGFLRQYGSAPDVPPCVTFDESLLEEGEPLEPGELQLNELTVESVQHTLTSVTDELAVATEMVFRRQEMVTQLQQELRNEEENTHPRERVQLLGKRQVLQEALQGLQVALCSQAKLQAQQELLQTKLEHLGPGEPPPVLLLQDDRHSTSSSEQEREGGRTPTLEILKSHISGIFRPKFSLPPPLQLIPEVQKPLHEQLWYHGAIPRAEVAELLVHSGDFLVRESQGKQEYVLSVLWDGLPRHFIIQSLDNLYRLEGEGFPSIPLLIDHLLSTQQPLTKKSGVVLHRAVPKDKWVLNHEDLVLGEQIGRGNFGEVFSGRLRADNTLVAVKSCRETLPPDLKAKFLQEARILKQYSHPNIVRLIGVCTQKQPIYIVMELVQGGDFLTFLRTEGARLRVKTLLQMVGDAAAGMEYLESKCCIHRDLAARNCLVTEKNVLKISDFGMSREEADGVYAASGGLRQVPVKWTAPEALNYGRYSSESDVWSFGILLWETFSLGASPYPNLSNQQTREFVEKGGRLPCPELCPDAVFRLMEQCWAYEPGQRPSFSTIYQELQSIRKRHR
Activin receptor type-2A (Homo sapiens), sequence (P27037 whole entry): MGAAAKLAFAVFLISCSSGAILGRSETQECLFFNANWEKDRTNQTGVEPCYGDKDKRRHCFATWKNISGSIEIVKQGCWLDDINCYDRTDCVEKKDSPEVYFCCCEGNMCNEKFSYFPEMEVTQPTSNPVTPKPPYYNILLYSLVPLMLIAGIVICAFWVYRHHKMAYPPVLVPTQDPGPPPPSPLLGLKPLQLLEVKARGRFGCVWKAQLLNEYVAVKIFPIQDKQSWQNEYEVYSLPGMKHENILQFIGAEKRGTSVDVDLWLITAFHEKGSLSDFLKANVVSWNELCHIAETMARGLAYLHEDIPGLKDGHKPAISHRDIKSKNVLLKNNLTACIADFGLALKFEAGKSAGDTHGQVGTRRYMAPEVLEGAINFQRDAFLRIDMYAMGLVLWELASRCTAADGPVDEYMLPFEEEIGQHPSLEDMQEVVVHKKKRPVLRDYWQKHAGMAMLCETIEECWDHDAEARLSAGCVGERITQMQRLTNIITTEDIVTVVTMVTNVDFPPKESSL
Serine/threonine-protein kinase 32A (Homo sapiens), sequence (Q8WU08 whole entry): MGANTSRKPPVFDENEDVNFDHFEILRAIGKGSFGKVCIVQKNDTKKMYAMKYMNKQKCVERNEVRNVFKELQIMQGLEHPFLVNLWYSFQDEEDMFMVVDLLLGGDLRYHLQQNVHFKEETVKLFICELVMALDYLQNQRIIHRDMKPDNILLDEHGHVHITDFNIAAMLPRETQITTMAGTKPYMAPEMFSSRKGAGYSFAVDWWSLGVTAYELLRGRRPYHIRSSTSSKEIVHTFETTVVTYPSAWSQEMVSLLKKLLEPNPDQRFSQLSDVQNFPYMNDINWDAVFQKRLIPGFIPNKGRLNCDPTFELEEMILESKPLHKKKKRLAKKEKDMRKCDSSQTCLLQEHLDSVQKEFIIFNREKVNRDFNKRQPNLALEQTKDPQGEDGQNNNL
LIM domain kinase 2 (Homo sapiens), sequence (P53671 whole entry, looked up, the tested form may be a part): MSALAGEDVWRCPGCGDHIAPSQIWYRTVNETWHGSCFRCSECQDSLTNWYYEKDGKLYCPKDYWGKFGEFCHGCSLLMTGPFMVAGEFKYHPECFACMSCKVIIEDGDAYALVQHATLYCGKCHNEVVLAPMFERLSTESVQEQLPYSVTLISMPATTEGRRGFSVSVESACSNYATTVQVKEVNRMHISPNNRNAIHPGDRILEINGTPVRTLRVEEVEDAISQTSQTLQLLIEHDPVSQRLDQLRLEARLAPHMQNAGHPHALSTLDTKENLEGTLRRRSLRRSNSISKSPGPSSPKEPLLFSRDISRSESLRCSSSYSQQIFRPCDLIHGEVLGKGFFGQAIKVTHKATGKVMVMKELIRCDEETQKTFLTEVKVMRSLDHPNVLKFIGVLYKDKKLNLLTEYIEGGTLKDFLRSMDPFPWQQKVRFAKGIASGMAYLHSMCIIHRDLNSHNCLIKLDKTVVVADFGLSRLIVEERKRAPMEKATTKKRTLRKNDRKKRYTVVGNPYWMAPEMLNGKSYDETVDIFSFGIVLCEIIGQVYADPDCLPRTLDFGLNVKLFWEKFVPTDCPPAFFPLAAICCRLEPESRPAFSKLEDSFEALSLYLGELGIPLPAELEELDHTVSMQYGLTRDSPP
Microtubule-associated serine/threonine-protein kinase 1 (Homo sapiens), sequence (Q9Y2H9 whole entry, looked up): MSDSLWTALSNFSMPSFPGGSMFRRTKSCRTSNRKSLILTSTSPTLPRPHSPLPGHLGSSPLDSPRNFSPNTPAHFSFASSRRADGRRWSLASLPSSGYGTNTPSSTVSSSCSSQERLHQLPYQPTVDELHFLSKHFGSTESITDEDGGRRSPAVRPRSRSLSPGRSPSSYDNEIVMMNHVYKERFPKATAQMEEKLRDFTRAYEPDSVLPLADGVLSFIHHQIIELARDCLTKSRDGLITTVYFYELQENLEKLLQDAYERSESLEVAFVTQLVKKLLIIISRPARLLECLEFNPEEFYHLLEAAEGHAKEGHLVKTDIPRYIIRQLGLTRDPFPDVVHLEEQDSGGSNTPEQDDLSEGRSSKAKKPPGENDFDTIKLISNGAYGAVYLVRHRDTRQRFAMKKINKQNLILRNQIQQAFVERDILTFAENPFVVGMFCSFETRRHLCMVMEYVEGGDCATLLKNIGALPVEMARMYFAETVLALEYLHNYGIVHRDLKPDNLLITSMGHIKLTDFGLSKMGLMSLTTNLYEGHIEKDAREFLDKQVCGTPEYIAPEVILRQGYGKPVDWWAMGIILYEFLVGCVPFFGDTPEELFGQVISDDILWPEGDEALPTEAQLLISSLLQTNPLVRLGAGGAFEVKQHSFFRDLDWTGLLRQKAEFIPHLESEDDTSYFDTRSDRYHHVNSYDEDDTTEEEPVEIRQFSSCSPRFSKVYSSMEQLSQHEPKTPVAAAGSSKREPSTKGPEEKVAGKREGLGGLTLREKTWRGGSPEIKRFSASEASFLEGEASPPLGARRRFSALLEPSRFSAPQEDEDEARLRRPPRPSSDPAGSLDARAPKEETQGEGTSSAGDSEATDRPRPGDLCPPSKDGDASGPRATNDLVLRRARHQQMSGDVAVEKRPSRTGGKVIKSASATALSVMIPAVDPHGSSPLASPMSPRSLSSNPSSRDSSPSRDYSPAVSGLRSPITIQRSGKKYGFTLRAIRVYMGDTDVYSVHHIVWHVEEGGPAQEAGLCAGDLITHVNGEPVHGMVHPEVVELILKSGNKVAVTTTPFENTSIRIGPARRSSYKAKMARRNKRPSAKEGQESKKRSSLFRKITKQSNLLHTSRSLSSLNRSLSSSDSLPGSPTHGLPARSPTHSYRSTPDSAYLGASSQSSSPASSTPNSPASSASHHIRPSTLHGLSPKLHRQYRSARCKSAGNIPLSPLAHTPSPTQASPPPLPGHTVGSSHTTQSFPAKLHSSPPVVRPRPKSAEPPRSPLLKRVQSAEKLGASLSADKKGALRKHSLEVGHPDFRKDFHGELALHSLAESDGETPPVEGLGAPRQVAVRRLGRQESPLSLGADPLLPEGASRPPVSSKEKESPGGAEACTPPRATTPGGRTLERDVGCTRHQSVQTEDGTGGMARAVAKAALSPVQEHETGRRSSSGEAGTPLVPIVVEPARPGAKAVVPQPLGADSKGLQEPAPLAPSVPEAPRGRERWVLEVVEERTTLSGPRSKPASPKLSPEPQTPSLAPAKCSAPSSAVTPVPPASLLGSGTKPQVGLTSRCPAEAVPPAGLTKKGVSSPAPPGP
Ephrin type-B receptor 4 (Homo sapiens), sequence (P54760 whole entry, canonical isoform): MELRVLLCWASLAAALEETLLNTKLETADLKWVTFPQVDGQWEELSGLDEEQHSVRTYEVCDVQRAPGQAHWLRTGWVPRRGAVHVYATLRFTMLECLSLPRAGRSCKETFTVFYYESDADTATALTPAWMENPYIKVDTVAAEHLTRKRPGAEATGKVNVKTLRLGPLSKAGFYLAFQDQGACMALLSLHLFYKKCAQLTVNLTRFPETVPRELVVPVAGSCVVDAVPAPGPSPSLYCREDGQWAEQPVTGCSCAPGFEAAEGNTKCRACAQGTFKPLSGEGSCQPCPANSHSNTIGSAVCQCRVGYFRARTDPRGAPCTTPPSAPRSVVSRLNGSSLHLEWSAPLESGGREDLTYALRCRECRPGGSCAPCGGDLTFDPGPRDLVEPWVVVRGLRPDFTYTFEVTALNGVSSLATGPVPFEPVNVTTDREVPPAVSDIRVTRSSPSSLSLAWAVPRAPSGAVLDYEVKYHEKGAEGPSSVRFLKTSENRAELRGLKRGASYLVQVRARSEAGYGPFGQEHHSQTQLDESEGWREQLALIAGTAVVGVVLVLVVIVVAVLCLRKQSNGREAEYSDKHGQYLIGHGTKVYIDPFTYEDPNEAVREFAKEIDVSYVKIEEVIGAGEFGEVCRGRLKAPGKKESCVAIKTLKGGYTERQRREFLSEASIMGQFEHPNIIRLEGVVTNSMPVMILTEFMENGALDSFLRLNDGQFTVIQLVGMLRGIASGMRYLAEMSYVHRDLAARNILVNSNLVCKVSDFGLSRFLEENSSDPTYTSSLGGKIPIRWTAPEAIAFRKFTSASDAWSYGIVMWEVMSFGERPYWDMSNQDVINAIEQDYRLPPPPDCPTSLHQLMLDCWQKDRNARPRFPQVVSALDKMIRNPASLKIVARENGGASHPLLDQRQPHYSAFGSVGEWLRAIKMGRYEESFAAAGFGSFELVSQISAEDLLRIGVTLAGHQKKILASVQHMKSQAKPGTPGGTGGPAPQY

CS(=O)(=O)N1CCCC(NC(=O)[C@H](CCC2CCCCC2)NC(=O)c2ccc(CNc3ncnc4c3nnn4-c3ccccc3)cc2)C1 (some centres not stated) [SR-301]
inactive: [1] 79% | [2] 100% | [3] 86% | [4] 100% | [5] 68% | [6] 73% | [7] 94% | [8] 94% | [9] 88% | [10] 86% | [11] 100% | [12] 100% | [13] 100% | [14] 96% | [15] 100% | [16] 100% | [17] 100% | [18] 90% | [19] 90% | [20] 100% | [21] 57% | [22] 100% | [23] 89% | [24] 86% | [25] 100% | [26] 100% | [27] 75% | [28] 100% | [29] 100% | [30] 100% | [31] 99% | [32] 100% | [33] 100% | [34] 100% | [35] 100% | [36] 100% | [37] 100% | [38] 97% | [39] 97% | [40] 100% | [41] 83% | [42] 87% | [43] 100% | [44] 100% | [45] 100% | [46] 66%

CS(=O)(=O)N1CCCC(NC(=O)[C@H](CCC2CCCCC2)NC(=O)c2ccc(CNC(=O)c3cnc4ccccn34)cc2)C1 (some centres not stated) [SR-302]
inactive: [1] 100% | [2] 94% | [3] 100% | [4] 98% | [5] 100% | [6] 100% | [7] 100% | [8] 94% | [9] 70% | [10] 100% | [11] 100% | [12] 100% | [13] 61% | [14] 97% | [15] 93% | [16] 100% | [17] 100% | [18] 100% | [19] 92% | [20] 100% | [21] 81% | [22] 100% | [23] 61% | [24] 100% | [25] 92% | [26] 82% | [27] 97% | [28] 98% | [29] 94% | [30] 88% | [31] 100% | [32] 100% | [33] 92% | [34] 63% | [35] 100% | [36] 100% | [37] 100% | [38] 100% | [39] 99% | [40] 92% | [41] 98% | [42] 100% | [43] 100% | [44] 100% | [45] 100% | [46] 100%
